Measured values taken from patent US20220080027A1, “METHODS OF TREATING NEURODEGENERATIVE DISEASES BY TARGETING THE PURINERGIC AND/OR ADENOSINE RECEPTORS” (Board of Regents, The University of Texas System, priority 2020, published 2022).
“Also recorded” adds a separate entry of the source.

B1: IFN-γ: cytokine used to treat uninfected PBMCs (protein, UniProt P01579 24-161, looked up)
Interferon gamma: QDPYVKEAENLKKYFNAGHSDVADNGTLFLGILKNWKEESDRKIMQSQIVSFYFKLFKNFKDDQSIQKSVETIKEDMNVKFFNSNKKKRDDFEKLTNYSVTDLNVQRKAIHELIQVMAELSPAAKTGKRKRSQMLFRG
B2: Cx43^E2: a peptide that specifically blocks Cx43 hemichannels (peptide)
VH: EVQLQQPGAELVKPGASVKLSCKASGYTFTSYYMYWVKQRPGQGLEWIGGINPSNGGTNFNEKFKNKATLTVDKSSSTAYMQLSSLTSEDSAVYYCTREGNPYYTMNYWGQGTSVTVSS
VL: DIVMTQSPSSLSVSAGEKVTMSCKSSQSLLNSGNQKTYLAWYQQKPGQPPKLLIYGASTRESGVPDRFTGSGSGTDFTLTISSVQAEDLAVYYCQNDHSYPFTFGSGTKLEIK

What was measured:
Panx-1 channels [1] = target: T1, Panx-1 channels (Homo sapiens, UniProt Q96RD7); assay: Ethidium (Etd) dye uptake, PBMCs from HIV-infected individuals; assay type: cell-based; details: for effect on spontaneous Panx-1 channel opening (Etd uptake): Prob 500 μM, 10Panx peptide 200 μM; for effect on pannexin-1 channel opening and Etd uptake: FIG. 1F legend: PROB 50 μM, CBX 50 μM, PEP 300 μM, n=60
T1 construct: PBMCs isolated from uninfected individuals maintain the pannexin-1 channels in a closed stage; endogenous in cells; host or cells: freshly isolated human PBMCs (uninfected or HIV-infected donors)
Protocol: (§1) Dye uptake and time-lapse microscopy. To characterize the functional state of Panx-1 channels, dye-uptake experiments using ethidium (Etd) bromide were performed (Cat #15585011, ThermoFisher, Grand Island, N.Y., USA). Cells were washed twice in HBSS and then exposed to Locke's solution (containing 154 mM NaCl, 5.4 mM KCl, 2.3 mM CaCl2, 5 mM HEPES, and pH 7.4) with 5 μM Etd and time-lapse microscopy were then performed. Phase-contrast and fluorescence microscopy with time-lapse imaging were used to record cell appearance and fluorescence-intensity changes in each condition. Fluorescence was recorded every 30 s. The NIH ImageJ program was used for off-line image analysis and fluorescence quantification. For data representation and calculation of Etd uptake slopes, the average of two independent background fluorescence (FB) (expressed as A.U.) was subtracted from mean fluorescent intensity (F1). Results of this calculation (F1-FB), for at least 20 cells, were averaged and plotted against time (expressed in minutes). Slopes were calculated using Microsoft Excel software and expressed as A.U./min. The microscope and camera settings remained the same in all experiments. Dead cells or cells with a damaged plasma membrane were identified during the time-lapse microscopy as a result of their nonspecific Etd uptake rate, determined by lack of time dependency and stability in dye uptake (not inhibited by channel blockers), and were not quantified.
(§2) However, the chronic effects of HIV infection on Panx-1 channel activity were unknown. To determine the status of the channel, Panx-1 channel opening was determined by Ethidium (Etd, 5 μM) uptake rate Ethidium only crosses the plasma membrane in healthy cells by passing through specific large channels, such as Connexin (Cx) and Pannexin (Panx) hemichannels, and its rate of intracellular accumulation is reflective of channel opening.
To assess the opening of the Panx-1 channels on PBMCs isolated from HIV-infected individuals, the inventors used a similar approach as described above. The inventors analyzed Panx-1 channel opening using dye uptake rate on PBMCs isolated from 60 different HIV-infected individuals, mostly with low to undetectable replication, as described in Table 1.

[2] = test system: PBMCs obtained from uninfected individuals; assay: PGE2 release by PBMCs from uninfected individuals (ELISA); assay type: cell-based, human; details: for effect on release of PGE2 in response to HIV-gp120: PBMCs from uninfected individuals, Prob 500 μM, 10Panx1 peptide 300 μM, TAK779 5 μM, AMD3100 5 μM; for induction of PGE2 secretion: treatment of uninfected PBMCs, 30 min
Protocol: (§3) Analysis of IL-1β and PGE2 release. Plasma/serum was collected, divided into aliquots, and stored at −80° C. There were no freeze-thaw cycles before analysis. Plasma/serum was analyzed for TNF-α, IL-1β (Quantikine ELISA kit; R and D Systems, Minneapolis Minn., USA) and PGE2 (Abcam, Cambridge, Mass., USA) by enzyme-linked immunosorbent assay (ELISA) according to the manufacturer's instructions.
(§4) Uninfected and HIV-infected PBMCs were isolated as described above.

[3] = test system: PBMCs obtained from HIV-infected individuals; assay: Spontaneous ATP release by PBMCs from HIV-infected individuals; assay type: cell-based, human; details: no stimulation, Prob 500 μM, 10Panx1 peptide 300 μM
Protocol: (§5) ATP Assay. […] Luminescence was measured using a PerkinElmer EnVision Multilabel Plate Reader. […] To assure rigor in these determinations, some samples were submitted for blinded analysis of ATP levels using mass spectrometry (University of North Dakota, N. Dak.).
as §4

[4] = test system: PBMCs obtained from HIV-infected individuals; assay: Spontaneous PGE2 release by PBMCs from HIV-infected individuals; assay type: cell-based, human; details: no stimulation, Prob 500 μM, 10Panx1 peptide 300 μM
Protocol: as §3, §4

[5] = test system: PBMCs obtained from uninfected individuals; assay: ATP release by PBMCs from uninfected individuals (ATPlite); assay type: cell-based, human; details: for effect on release of ATP in response to HIV-gp120: PBMCs from uninfected individuals, Prob 500 μM, 10Panx1 peptide 300 μM, TAK779 5 μM, AMD3100 5 μM; for induction of ATP secretion: treatment of uninfected PBMCs, 30 min
Protocol: as §5, §4

Panx-1 channels [6] = target: T1, Panx-1 channels; assay: Ethidium (Etd) dye uptake, PBMCs from uninfected individuals; assay type: cell-based; details: for effect on basal Etd uptake: PBMCs from uninfected individuals, Prob 500 μM, CBX 500 μM, 10Panx peptide 200 μM, FIG. 1C; for induction of Panx-1 channel opening: treatment of uninfected PBMCs, 30 min, gp120 1 μg/ml, TNF-α 10 ng/ml, IL-1β 10 U/ml, IFN-γ 10 ng/ml, LPS 1 μg/ml
Protocol: as §1, §2

[7] = test system: BBB model (primary human BMVEC and primary human astrocytes); assay: BBB disruption after transmigration of HIVADA infected PBMCs; assay type: cell-based
Protocol: (§6) Blood-brain barrier (BBB) model: This in vitro BBB model consists of primary human BMVEC and primary human astrocytes in co-culture on opposite sides of a gelatin-coated, 3 μm pore-size tissue culture insert (Falcon, B D, Franklin Lakes, N.J.) as described by the inventors. Co-cultures were maintained for three days to enable contact between astrocyte endfeet with BMVEC on the opposite side of the model as described. After this, the BBB model was treated with different ATP concentrations (Cat #A1852, Sigma Chemical Co., St. Louis, Mo., USA), and BBB permeability was measured using BSA conjugated to Evans Blue, as described by the inventors.
(§7) PBMCs infected with the HIVADA were added to the top chamber of BBB co-cultures without CCL2 in the bottom chamber (HIV).

[8] = test system: HIVADA infected PBMCs (lymphocytes and monocytes); assay: Transmigration of HIVADA infected PBMCs across the in vitro BBB model in response to CCL2; assay type: cell-based, human; details: added to the co-culture; oATP 100 μM, apyrase 100 units/ml; data not shown
Protocol: as §6, §7

[9] = target: CD4 on PBMCs from uninfected individuals (human) (UniProt P01730); assay: cell-based or functional assay
purinergic receptors = details: in vivo mouse model [116]; cited from earlier work
HIV = HIV replication and viral entry; assay type: cell-based
[10] = added to the co-culture, oATP 100 μM, apyrase 100 units/ml, data not shown

T1 sequence (Q96RD7 whole entry): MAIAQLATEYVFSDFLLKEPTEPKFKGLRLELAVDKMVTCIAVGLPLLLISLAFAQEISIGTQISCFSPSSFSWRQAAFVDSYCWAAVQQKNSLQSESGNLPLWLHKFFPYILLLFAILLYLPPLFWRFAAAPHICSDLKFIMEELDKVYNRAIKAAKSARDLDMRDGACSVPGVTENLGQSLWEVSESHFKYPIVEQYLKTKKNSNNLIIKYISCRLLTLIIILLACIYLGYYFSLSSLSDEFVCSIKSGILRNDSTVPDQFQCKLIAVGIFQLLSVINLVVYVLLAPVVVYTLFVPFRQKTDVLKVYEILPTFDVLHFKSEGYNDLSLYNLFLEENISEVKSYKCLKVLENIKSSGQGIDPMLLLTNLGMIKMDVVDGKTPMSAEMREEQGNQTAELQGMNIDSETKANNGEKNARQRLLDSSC

Molecule | effect on spontaneous Panx-1 channel opening (Etd uptake) (Panx-1 channels [1]) | effect on release of PGE2 in response to HIV-gp120 [2] | effect on spontaneous release of ATP [3] | effect on spontaneous release of PGE2 [4] | effect on release of ATP in response to HIV-gp120 [5] | effect on basal Etd uptake (Panx-1 channels [6]) | also measured
Cc1ccc(-c2ccc3c(c2)C=C(C(=O)Nc2ccc(C[N+](C)(C)C4CCOCC4)cc2)CCC3)cc1.[Cl-] [TAK779] | did not prevent | prevented the release | no significant effects | no significant effects | prevented the release |  | 
CCCN(CCC)S(=O)(=O)c1ccc(C(=O)O)cc1 [probenecid] |  | prevented the release | prevented the release | prevented the release | prevented the release | did not affect | effect on BBB disruption ([7]; HIVADA infected PBMCs preincubated with blocker, CCL2): reduced BBB disruption; effect on pannexin-1 channel opening and Etd uptake (Panx-1 channels [1]): able to prevent the opening of the pannexin-1 channel and Etd uptake
CC1(C)[C@@H](OC(=O)CCC(=O)O)CC[C@]2(C)[C@H]3C(=O)C=C4[C@@H]5C[C@@](C)(C(=O)O)CC[C@]5(C)CC[C@@]4(C)[C@]3(C)CC[C@@H]12 [carbenoxolone] |  |  |  |  |  | did not affect | effect on pannexin-1 channel opening and Etd uptake (Panx-1 channels [1]): able to prevent the opening of the pannexin-1 channel and Etd uptake
apyrase |  |  |  |  |  |  | effect on BBB disruption [7, 10]: blocked; effect on transmigration [8]: blocked
[La] [lanthanum] | did not affect | did not alter | did not alter | did not alter | did not alter | did not have any effect | effect on release of PGE2 in response to HIV-gp120 ([2]; listed as Lanthanum): did not affect; effect on spontaneous release of ATP ([3]; listed as Lanthanum): did not affect; effect on spontaneous release of PGE2 ([4]; listed as Lanthanum): did not affect; effect on release of ATP in response to HIV-gp120 ([5]; listed as Lanthanum): did not affect
recombinant protein HIV-gp120 (HIV-Bal) (ligand) |  |  |  |  |  |  | release of ATP after 30 min (uninfected PBMCs, gp120 1 µg/ml) [9]: 5.9 µM; release of PGE2 after 30 min (uninfected PBMCs, gp120 1 µg/ml) [9]: 56.8 pg/mL
Nc1ncnc2c1ncn2[C@@H](C=O)O[C@@H](C=O)COP(=O)(O)OP(=O)(O)OP(=O)(O)O [oATP] |  |  |  |  |  |  | effect on BBB disruption [7, 10]: blocked; onset of diabetes and inflammatory bowel disease (purinergic receptors): can prevent the onset of diabetes and inflammatory bowel disease; systemic blocking of purinergic receptors (purinergic receptors): good systemic blocker of purinergic receptors; inhibition of HIV replication and viral entry (HIV): potent inhibitor; effect on transmigration [8]: blocked
IL-1p: cytokine used to treat uninfected PBMCs |  |  |  |  |  |  | induction of Panx-1 channel opening (Panx-1 channels [6]): does not induce; induction of PGE2 secretion [2]: does not induce; induction of ATP secretion [5]: does not induce
TNF-α |  |  |  |  |  |  | induction of Panx-1 channel opening (Panx-1 channels [6]): does not induce; induction of PGE2 secretion [2]: does not induce; induction of ATP secretion [5]: does not induce
c1cc(CN2CCCNCCNCCCNCC2)ccc1CN1CCCNCCNCCCNCC1 [AMD3100] | did not prevent | prevented the release | no significant effects | no significant effects | prevented the release |  | 
B1 |  |  |  |  |  |  | induction of Panx-1 channel opening (Panx-1 channels [6]): does not induce; induction of PGE2 secretion [2]: does not induce; induction of ATP secretion [5]: does not induce
B2 | did not affect | did not alter; also recorded: did not affect | did not alter; also recorded: did not affect | did not alter; also recorded: did not affect | did not alter; also recorded: did not affect | did not have any effect | 
